Laboratory results: PMC11433870, “Neurotoxicity, Neuroprotection, In Vitro MAOA/MAOB Inhibitory Activity Assessment, Molecular Docking, and Permeability Assay Studies of Newly Synthesized Hydrazones Containing a Pyrrole Ring” (Molecules, 2024)
Values joined by “and” are separate entries in the source; they are usually repeats but may differ in a detail not shown here. Equal values may be shown once.

What was measured:
[1] = system: isolated rat brain synaptosomes; assay: Neurotoxicity: synaptosomal viability (MTT), substances applied alone; format: cell-based; conditions: 50 µM applied alone, 1 h, compared to control (untreated synaptosomes)
Method: (§1) Synaptosomes and mitochondria were obtained by multiple, subcellular fractionation using a Percoll gradient. The necessary brain homogenate was prepared and centrifuged at 1000× g for 5 min at +4 °C. After centrifugation, the supernatants were collected and centrifuged again at 1000× g for 5 min at +4 °C. The supernatants from the two centrifugations were mixed and distributed into four tubes. The tubes were centrifuged at 10,000× g for 20 min at +4 °C three times. The last two centrifugations were for purification of synaptosomes and mitochondria.
(§2) The isolation of the required fractions was based on the formation of a colloidal solution of silicon (Percoll), as per the procedure, including: 1. Preparation of a 90% stock solution of Percoll, followed by preparation of two Percoll solutions of different percentages: 16% and 10%. An amount of 4 mL of each of the prepared 16% and 10% Percoll solutions was placed in six test tubes. A 90% Percoll (7.5% Percoll) was added to the precipitate obtained from the previous step from the last centrifugation. The obtained mixtures in all 12 tubes were centrifuged for 20 min at 15,000× g +4 °C. After centrifugation, three layers are formed in the tubes. The bottom layer contains mitochondria, the top layer contains lipids, and the middle layer—at the 16% to 10% Percoll limit—contains synaptosomes. The respective layer from each tube is removed through a glass pasteurizer and collected into one. Buffer B + glucose is added to it. The mixture was centrifuged at 10,000× g for 20 min at +4 °C. Thus, the isolation buffer is exchanged with the incubation buffer. After centrifugation, the pellet where the synaptosomes are mixed and made up with buffer B + glucose.
(§3) Synaptosomes and mitochondria were incubated with the test substances at a concentration of 50 µM for 1 h.
After 1 h incubation with the substances and toxic agent, synaptosomes were centrifuged on a microcentrifuge for 1 min at 15,000× g. The pellet was mixed gently with buffer B + glucose, and the supernatant where 6-OHDA was discarded to prevent oxidation of MTT. Centrifuge again at 15,000× g for 1 min. After the second wash, buffer B + glucose was added to the pellet. To the ‘washed’ synaptosomes, 60 µL of MTT solution is added. The plates were incubated with the MTT solution at 37 °C for 10 min. After incubation, the samples were centrifuged at 15,000× g for 2 min. The excess liquid was removed, and a DMSO solution was used to dissolve the formed formazan crystals. After dissolution, the amount of formazan is measured spectrophotometrically at λ = 580 nm.

[2] = system: isolated rat brain synaptosomes; assay: Neurotoxicity: reduced glutathione (GSH) level in synaptosomes, substances applied alone; format: cell-based; conditions: 50 µM applied alone, 1 h, compared to control
Method: as §1, §2, §3
(§4) After precipitation of the proteins with trichloroacetic acid, the thiol groups in the supernatant were determined by DTNB, which produced a yellow-colored compound that absorbs light at λ = 412 nm. After incubation, synaptosomes were centrifuged at 4000× g for 3 min. The supernatant was removed and the pellet taken for GSH determination. It was treated with 5% trichloroacetic acid, then left for 10 min on ice. It was centrifuged at 8000× g for 10 min (2 °C). The supernatant is taken for GSH determination and frozen at −20 °C. Immediately before measurement, the samples are neutralized with 5N NaOH [58].

[3] = system: isolated rat brain mitochondria; assay: Neurotoxicity: MDA production in brain mitochondria, substances applied alone; format: cell-based; conditions: 50 µM applied alone, compared to control
Method: as §1, §2, §3
To the mitochondria was added 0.3 mL of 0.2% thiobarbituric acid and 0.25 mL of sulfuric acid (0.05 M), and the mixture was boiled for 30 min. After boiling, the tubes were placed on ice, and 0.4 mL of n-butanol was added to each, then centrifuged at 3500× g for 10 min. The amount of MDA was determined spectrophotometrically at 532 nm.

[4] = system: isolated rat brain mitochondria; assay: Neurotoxicity: GSH level in brain mitochondria, substances applied alone; format: cell-based; conditions: 50 µM applied alone, compared to control
Method: as §1, §2
[…]. After centrifugation of the homogenate at 6000× g, a 0.04% solution of DTNB was added to the supernatant to give a yellow color, the determination being spectrophotometric at 412 nm.

[5] = system: isolated rat brain microsomes; assay: Neurotoxicity: MDA production in brain microsomes, substances applied alone; format: cell-based; conditions: 50 µM applied alone, compared to control
Method: (§5) The brain was homogenized in 9 volume parts of 0.1 M Tris buffer containing: 0.1 mM dithiothreitol, 0.1 mM phenylmethylsulfonyl fluoride, 0.2 mM EDTA, 1.15% KCl, and 20% (v/v) glycerol (pH 7.4). The resulting homogenate was centrifuged twice at 17,000× g for 30 min. The supernatants from the two centrifugations were pooled and centrifuged twice at 100,000× g for 1 h. The pellet was frozen in 0.1 M Tris buffer.
(§6) After completion of incubation of the microsomes with the substances and toxic agent, the reaction was stopped by the addition of 0.5 mL of 20% trichloroacetic acid, followed by 0.5 mL of 0.67% thiobarbituric acid. The ongoing reactions are associated with the formation of a colored complex between the malondialdehyde formed and thiobarbituric acid. The determination of MDA was spectrophotometric at 535 nm. A molar extinction coefficient of […] was used for the calculation.

[6] = system: isolated rat brain synaptosomes; assay: 6-OHDA-induced neurotoxicity model: GSH level; format: cell-based; conditions: 50 µM in combination with 6-OHDA (150 µM), compared to the toxic agent
Method: as §1, §2, §3
Synaptosomes were incubated with 6-OHDA (150 μM) for 1 h.
as §4

[7] = system: isolated rat brain microsomes; assay: Fe2+/AA-induced non-enzyme lipid peroxidation model: MDA production; format: cell-based; conditions: 50 µM in combination with Fe2+/AA, compared to the toxic agent
Method: as §5
Non-enzyme-induced lipid peroxidation was induced with 20 μM ferrous sulfate solution and 0.5 mM ascorbic acid solution [62].
as §6

[8] = molecular target: T1, human recombinant MAOA enzyme (hMAOA) (Homo sapiens, UniProt P21397); assay: Human recombinant MAOA enzyme activity (fluorometric, Amplex Red); format: biochemical; conditions: read-out: IC50 (EC50), (µM ± SD) hMAOA
T1 sequence (P21397 1-527): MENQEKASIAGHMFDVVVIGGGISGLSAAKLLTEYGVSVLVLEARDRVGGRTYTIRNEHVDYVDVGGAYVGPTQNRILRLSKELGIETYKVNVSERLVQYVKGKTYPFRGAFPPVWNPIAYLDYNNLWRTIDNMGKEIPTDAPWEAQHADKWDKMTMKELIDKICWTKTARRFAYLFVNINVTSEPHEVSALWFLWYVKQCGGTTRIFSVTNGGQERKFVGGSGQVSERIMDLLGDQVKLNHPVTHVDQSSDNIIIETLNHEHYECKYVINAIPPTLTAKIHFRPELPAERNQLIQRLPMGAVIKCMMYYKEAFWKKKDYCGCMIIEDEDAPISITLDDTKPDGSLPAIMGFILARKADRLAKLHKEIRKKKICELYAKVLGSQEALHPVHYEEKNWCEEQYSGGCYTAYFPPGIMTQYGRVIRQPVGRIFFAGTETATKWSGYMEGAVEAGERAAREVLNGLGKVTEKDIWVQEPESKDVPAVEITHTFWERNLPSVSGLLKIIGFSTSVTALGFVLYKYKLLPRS

[9] = molecular target: T2, human recombinant MAOB enzyme (hMAOB) (Homo sapiens, UniProt P27338); assay: Human recombinant MAOB enzyme activity (fluorometric, Amplex Red); format: biochemical; conditions: for inhibition at 1 µM: compared to control (pure hMAOB); for IC50: read-out: IC50 (EC50), (µM ± SD) hMAOB;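 as to all read-outs here: tyramine as substrate, H2O2 formation detected by horseradish peroxidase coupled Amplex Red fluorescence read at 570 and 690 nm, compounds incubated with enzyme 30 min at 37 °C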
T2 sequence (P27338 1-520): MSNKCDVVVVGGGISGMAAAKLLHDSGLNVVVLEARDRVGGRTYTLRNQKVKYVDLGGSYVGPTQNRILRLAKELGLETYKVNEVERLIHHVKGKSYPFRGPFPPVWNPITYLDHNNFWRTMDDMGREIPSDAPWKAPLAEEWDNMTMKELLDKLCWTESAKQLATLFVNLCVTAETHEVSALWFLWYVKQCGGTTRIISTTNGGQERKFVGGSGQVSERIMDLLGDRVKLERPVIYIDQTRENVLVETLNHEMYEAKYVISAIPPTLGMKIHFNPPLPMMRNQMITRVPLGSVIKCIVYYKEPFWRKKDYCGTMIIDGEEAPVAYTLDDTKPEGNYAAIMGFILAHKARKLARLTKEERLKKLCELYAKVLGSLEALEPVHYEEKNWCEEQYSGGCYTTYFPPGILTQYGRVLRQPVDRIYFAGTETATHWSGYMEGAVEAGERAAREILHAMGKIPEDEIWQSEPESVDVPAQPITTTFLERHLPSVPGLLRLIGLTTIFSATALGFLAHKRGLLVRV

[10] = pH 7.4, 50 µM, 4 h, 25 °C; Pe calculated in 10^−6 cm/s, presented as −logPe
[11] = system: isolated rat brain mitochondria; assay: t-BuOOH-induced oxidative stress model: GSH level; conditions: 50 µM in combination with t-BuOOH (75 µM), compared to the toxic agent
[12] = system: isolated rat brain mitochondria; assay: t-BuOOH-induced oxidative stress model: MDA production; conditions: 50 µM in combination with t-BuOOH (75 µM), compared to the toxic agent

Row | Compound | IC50 [8] [µM] | SI: hMAOB selectivity index = IC50(hMAOA)/IC50(hMAOB) [9] | inhibition at 1 µM [9] [%] | IC50 [9] [µM] | PAMPA BBB −logPe [10] | decrease of synaptosomal viability [1] [%] | decrease of glutathione (GSH) level [2] [%] | increase of MDA production [3] [%] | decrease of GSH level [4] [%] | increase of MDA production [5] [%] | preservation of GSH level [6] [%] | decrease of MDA production [7] [%] | preservation of GSH level [11] [%] | reduction of MDA production [12] [%]
1 | CCOC(=O)c1cc(-c2ccc(Br)cc2)n(CC(=O)NN=Cc2ccc(N(C)C)cc2)c1C [7a] | > 100 | >123 | 20 | 0.812 ± 0.1 | 4.849 ± 0.043 | 30 | 25 | 63 | 20 | 54 | 50 | 34 | 40 | 14
2 | CCOC(=O)c1cc(-c2ccc(Br)cc2)n(CC(=O)NN=Cc2ccc(Cl)cc2)c1C [7b] | > 100 | >181 | 40 | 0.551 ± 0.1 | 4.416 ± 0.022 and 4.416 | 25 | 15 | 43 | 15 | 40 | 60 | 46 | 70 | 28
3 | CCOC(=O)c1cc(-c2ccc(Br)cc2)n(CC(=O)NN=Cc2ccc([N+](=O)[O-])cc2)c1C [7c] | > 100 | >123 | 25 | 0.815 ± 0.2 | 4.601 ± 0.040 | 35 | 20 | 53 | 25 | 51 | 50 | 35 | 40 | 18
4 | CCOC(=O)c1cc(-c2ccc(Br)cc2)n(CC(=O)NN=Cc2cc(OC)c(O)c(OC)c2)c1C [7d] | > 100 | >204 | 45 | 0.491 ± 0.09 | 4.819 ± 0.004 and 4.819 | 20 | 15 | 34 | 15 | 27 | 70 | 52 | 80 | 35
5 | CCOC(=O)c1cc(-c2ccc(Br)cc2)n(CC(=O)NN=Cc2ccc(OC)cc2OC)c1C [7e] | > 100 | >123 | 35 | 0.81 ± 0.09 | 4.814 ± 0.15 | 30 | 25 | 50 | 25 | 52 | 40 | 31 | 50 | 10
6 | CC(C)NCC(O)COc1cccc2ccccc12.Cl (stereo not drawn) [Propranolol HCl, reference compound] | – | – | – | – | 4.389 ± 0.014 | – | – | – | – | – | – | – | – | –

More lines, main results first:

Row | IC50 [8] [µM] | SI: hMAOB selectivity index = IC50(hMAOA)/IC50(hMAOB) [9] | inhibition at 1 µM [9] [%] | IC50 [9] [µM] | PAMPA BBB −logPe [10] | Compound | decrease of synaptosomal viability [1] [%] | decrease of glutathione (GSH) level [2] [%] | increase of MDA production [3] [%] | decrease of GSH level [4] [%] | increase of MDA production [5] [%] | preservation of GSH level [6] [%] | decrease of MDA production [7] [%] | preservation of GSH level [11] [%] | reduction of MDA production [12] [%]
7 | > 100 | >122 | 20 | 0.821 ± 0.1 | 5.268 and 5.268 ± 0.014 | CCOC(=O)c1cc(-c2ccc(Br)cc2)n(CCC(=O)NN=Cc2ccc(N(C)C)cc2)c1C [8a] | 35 | 25 | 60 | 20 | 55 | 40 | 35 | 60 | 18
8 | > 100 | >123 | 25 | 0.815 ± 0.1 | 4.444 ± 0.004 | CCOC(=O)c1cc(-c2ccc(Br)cc2)n(CCC(=O)NN=Cc2ccc(Cl)cc2)c1C [8b] | 30 | 20 | 52 | 20 | 51 | 50 | 31 | 50 | 9
